Test results as given in patent publication US12637454B2, “Heterocyclic monoacylglycerol lipase (MAGL) inhibitors” (Hoffmann-La Roche Inc., priority 2019, dated 2026).

Target: T1, MAGL (Homo sapiens, UniProt Q99685)
T1 sequence (Q99685 1-303): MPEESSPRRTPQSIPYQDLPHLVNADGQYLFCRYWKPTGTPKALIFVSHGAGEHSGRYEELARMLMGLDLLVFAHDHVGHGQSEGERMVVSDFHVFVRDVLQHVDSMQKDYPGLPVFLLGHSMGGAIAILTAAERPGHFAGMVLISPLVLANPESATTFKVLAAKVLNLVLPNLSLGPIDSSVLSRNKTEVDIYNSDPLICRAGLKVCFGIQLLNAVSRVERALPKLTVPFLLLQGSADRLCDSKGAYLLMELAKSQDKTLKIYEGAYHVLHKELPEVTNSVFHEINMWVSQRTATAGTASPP
Experiment: 2-AG assay (MAGL inhibitory activity, hydrolysis of 2-arachidonoylglycerol followed by mass spectrometry)
Format: biochemical
Conditions: 50 pM MAGL, 8 μM 2-arachidonoylglycerol, 15 min preincubation, 30 min incubation at RT
Procedure: Compounds were profiled for MAGL inhibitory activity by determining the enzymatic activity by following the hydrolysis of the natural substrate 2-arachidonoylglycerol (2-AG) resulting in arachidonic acid, which can be followed by mass spectrometry. This assay is hereinafter abbreviated “2-AG assay”.
The 2-AG assay was carried out in 384 well assay plates (PP, Greiner Cat #784201) in a total volume of 20 μL. Compound dilutions were made in 100% DMSO (VWR Chemicals 23500.297) in a polypropylene plate in 3-fold dilution steps to give a final concentration range in the assay from 12.5 μM to 0.8 pM. 0.25 μL compound dilutions (100% DMSO) were added to 9 μL MAGL in assay buffer (50 mM TRIS (GIBCO, 15567-027), 1 mM EDTA (Fluka, 03690-100 mL), 0.01% (v/v) Tween. After shaking, the plate was incubated for 15 min at RT. To start the reaction, 10 μL 2-arachidonoylglycerol in assay buffer was added. The final concentrations in the assay was 50 pM MAGL and 8 μM 2-arachidonoylglyerol. After shaking and 30 min incubation at RT, the reaction was quenched by the addition of […] of ACN containing 4 μM of d8-arachidonic acid. The amount of arachidonic acid was traced by an online SPE system (Agilent Rapidfire) coupled to a triple quadrupole mass spectrometer (Agilent 6460). A C18 SPE cartridge (G9205A) was used in an ACN/water liquid setup. The mass spectrometer was operated in negative electrospray mode following the mass transitions 303.1→259.1 for arachidonic acid and 311.1→267.0 for d8-arachidonic acid. The activity of the compounds was calculated based on the ratio of intensities [arachidonic acid/d8-arachidonic acid].

Row | SMILES | IC50 [nM]
1 | COc1cccc(C(=O)N2CCN3C[C@](O)(c4ccc(F)c(Cl)c4)CC[C@H]3C2)c1Cl [Example 2, [(7R,9aS)-7-(3-chloro-4-fluorophenyl)-7-hydroxy-3,4,6,8,9,9a-hexahydro-1H-pyrido[1,2-a]pyrazin-2-yl]-(2-chloro-3-methoxyphenyl)methanone] | 18.8
2 | O=C(c1cccc(-c2ccn[nH]2)c1Cl)N1CCN2C[C@@](O)(c3ccc(Cl)cc3)CC[C@@H]2C1 [Example 3, [(7S,9aR)-7-(4-chlorophenyl)-7-hydroxy-3,4,6,8,9,9a-hexahydro-1H-pyrido[1,2-a]pyrazin-2-yl]-[2-chloro-3-(1H-pyrazol-5-yl)phenyl]methanone] | 4.31
3 | O=C(c1cccc(-c2ccn[nH]2)c1Cl)N1CCN2C[C@](O)(c3ccc(Cl)cc3)CC[C@H]2C1 [Example 4, [(7R,9aS)-7-(4-chlorophenyl)-7-hydroxy-3,4,6,8,9,9a-hexahydro-1H-pyrido[1,2-a]pyrazin-2-yl]-[2-chloro-3-(1H-pyrazol-5-yl)phenyl]methanone] | 76.3
4 | O=C(c1cccc(-c2c[nH]nc2F)c1Cl)N1CCN2C[C@@](O)(c3ccc(Cl)cc3)CC[C@@H]2C1 [Example 5, [(7S,9aR)-7-(4-chlorophenyl)-7-hydroxy-3,4,6,8,9,9a-hexahydro-1H-pyrido[1,2-a]pyrazin-2-yl]-[2-chloro-3-(3-fluoro-1H-pyrazol-4-yl)phenyl]methanone] | 1.95
5 | O=C(c1cccc(-c2c[nH]nc2F)c1Cl)N1CCN2C[C@](O)(c3ccc(Cl)cc3)CC[C@H]2C1 [Example 6, [(7R,9aS)-7-(4-chloropheny1)-7-hydroxy-3,4,6,8,9,9a-hexahydro-1H-pyrido[1,2-a]pyrazin-2-yl]-[2-chloro-3-(3-fluoro-1H-pyrazol-4-yl)phenyl]methanone] | 17.2
6 | COc1ccc(C(=O)N2CCN3C[C@@](O)(c4ccc(Cl)cc4)CC[C@@H]3C2)c(Cl)n1 [Example 7, [(7S,9aR)-7-(4-chlorophenyl)-7-hydroxy-3,4,6,8,9,9a-hexahydro-1H-pyrido[1,2-a]pyrazin-2-yl]-(2-chloro-6-methoxypyridin-3-yl)methanone] | 398
7 | Cc1nc(N)ccc1C(=O)N1CCN2C[C@@](O)(c3ccc(Cl)cc3)CC[C@@H]2C1 [Example 8, [(7S,9aR)-7-(4-chlorophenyl)-7-hydroxy-3,4,6,8,9,9a-hexahydro-1H-pyrido[1,2-a]pyrazin-2-yl]-(6-amino-2-methylpyridin-3-yl)methanone] | 2960
8 | O=C(c1cccc(N2CC(O)C2)c1Cl)N1CCN2C[C@@](O)(c3ccc(Cl)cc3)CC[C@@H]2C1 [Example 9, [(7S,9aR)-7-(4-chlorophenyl)-7-hydroxy-3,4,6,8,9,9a-hexahydro-1H-pyrido[1,2-a]pyrazin-2-yl]-[2-chloro-3-(3-hydroxyazetidin-1-yl)phenyl]methanone] | 16.2
9 | O=C(c1cccc(N2CC(O)C2)c1F)N1CCN2C[C@@](O)(c3ccc(Cl)cc3)CC[C@@H]2C1 [Example 10] | 58.2
10 | Cn1c(Cl)c(C(=O)N2CCN3C[C@](O)(c4ccc(Cl)cc4)CC[C@H]3C2)ccc1=O [Example 11, 5-[(7R,9aS)-7-(4-chlorophenyl)-7-hydroxy-3,4,6,8,9,9a-hexahydro-1H-pyrido[1,2-a]pyrazine-2-carbonyl]-6-chloro-l-methylpyridin-2-one] | 775
11 | Cn1c(Cl)c(C(=O)N2CCN3C[C@@](O)(c4ccc(Cl)cc4)CC[C@@H]3C2)ccc1=O [Example 12, 5-[(7S,9aR)-7-(4-chlorophenyl)-7-hydroxy-3,4,6,8,9,9a-hexahydro-1H-pyrido[1,2-a]pyrazine-2-carbonyl]-6-chloro-l-methylpyridin-2-one] | 4460
12 | O=C(c1cccc(N2CCOC2=O)c1Cl)N1CCN2C[C@@](O)(c3ccc(Cl)cc3)CC[C@@H]2C1 [Example 13, 3-[3-[(7S,9aR)-7-(4-chlorophenyl)-7-hydroxy-3,4,6,8,9,9a-hexahydro-1H-pyrido[1,2-a]pyrazine-2-carbonyl]-2-chlorophenyl]-1,3-oxazolidin-2-one] | 1190
13 | O=C(c1cccc(N2CCNC2=O)c1Cl)N1CCN2C[C@@](O)(c3ccc(Cl)cc3)CC[C@@H]2C1 [Example 14, 1-[3-[(7S,9aR)-7-(4-chlorophenyl)-7-hydroxy-3,4,6,8,9,9a-hexahydro-1H-pyrido[1,2-a]pyrazine-2-carbonyl]-2-chlorophenyl]imidazolidin-2-one] | 2160
14 | Cc1c[nH]nc1-c1cccc(C(=O)N2CCN3C[C@@](O)(c4ccc(Cl)cc4)CC[C@@H]3C2)c1F [Example 15, [(7S,9aR)-7-(4-chlorophenyl)-7-hydroxy-3,4,6,8,9,9a-hexahydro-1H-pyrido[1,2-a]pyrazin-2-yl]-[2-fluoro-3-(4-methl1-1H-pyrazol-3-yl)phenyl]methanone] | 168
15 | Cc1cn[nH]c1-c1cccc(C(=O)N2CCN3C[C@@](O)(c4ccc(Cl)cc4)CC[C@@H]3C2)c1Cl [Example 16, [(7S,9aR)-7-(4-chlorophenyl)-7-hydroxy-3,4,6,8,9,9a-hexahydro-1H-pyrido[1,2-a]pyrazin-2-yl]-[2-chloro-3-(4-methyl-1H-pyrazol-5-yl)phenyl]methanone] | 10.3
16 | Cc1c[nH]nc1-c1cccc(C(=O)N2CCN3C[C@@](O)(c4ccc(Cl)cc4)CC[C@@H]3C2)c1 [Example 17] | 255
17 | COc1cccc(C(=O)N2CCN3C[C@@](O)(c4ccc(C(F)(F)F)cn4)CC[C@@H]3C2)c1Cl [Example 18] | 97.2
18 | COc1cccc(C(=O)N2CCN3C[C@](O)(c4ccc(C(F)(F)F)cn4)CC[C@H]3C2)c1Cl [Example 19, [(7S,9aS)-7-hydroxy-7-[5-(trifluoromethyl)pyridin-2-yl]-3,4,6,8,9,9a-hexahydro-1H-pyrido[1,2-a]pyrazin-2-yl]-(2-chloro-3-methoxyphenyl)methanone] | 150
19 | O=C(c1cccc(-c2ccn[nH]2)c1Cl)N1CCN2C[C@@](O)(c3ccc(C(F)(F)F)cn3)CC[C@@H]2C1 [Example 20, [(7R,9aR)-7-hydroxy-7-[5-(trifluoromethyl)pyridin-2-yl]-3,4,6,8,9,9a-hexahydro-1H-pyrido[1,2-a]pyrazin-2-yl]-[2-chloro-3-(1H-pyrazol-5-yl)phenyl]methanone] | 11.5
20 | O=C(c1cccc(N2CCOCC2)c1F)N1CCN2C[C@@](O)(c3ccc(Cl)cc3)CC[C@@H]2C1 [Example 21, [(7S,9aR)-7-(4-chlorophenyl)-7-hydroxy-3,4,6,8,9,9a-hexahydro-1H-pyrido[1,2-a]pyrazin-2-yl]-(2-fluoro-3-morpholino-phenyl)methanone] | 351
21 | CC(C)(C)OC(=O)N1CCN(c2cccc(C(=O)N3CCN4C[C@@](O)(c5ccc(Cl)cc5)CC[C@@H]4C3)c2F)CC1 [Example 22, tert-butyl 4-[3-[(7S,9aR)-7-(4-chlorophenyl)-7-hydroxy-3,4,6,8,9,9a-hexahydro-1H-pyrido[1,2-a]pyrazine-2-carbonyl]-2-fluorophenyl]piperazine-1-carboxylate] | 838
22 | O=C(c1cccc(N2CCNCC2)c1F)N1CCN2C[C@@](O)(c3ccc(Cl)cc3)CC[C@@H]2C1 [Example 23, [(7S,9aR)-7-(4-chlorophenyl)-7-hydroxy-3,4,6,8,9,9a-hexahydro-1H-pyrido[1,2-a]pyrazin-2-yl]-(2-fluoro-3-piperazin-1-ylphenyl)methanone] | 656
